Key:
APOL1 G1 = molecular target: T1, APOL1 G1 (Homo sapiens, UniProt O14791, I384M/S342G); assay: Trypanosoma brucei brucei Lysis Assay Using APOL1 Recombinant Protein (AlamarBlue viability readout); format: cell-based; conditions: Trypanosome Assay; for IC50: IP50 = IC50 for cell proliferation, read-out: Trypanosome Assay IP50; for Emax: read-out: Trypanosome Assay Max Activity (%)
T1 sequence (O14791 28-398 S342G/I384M): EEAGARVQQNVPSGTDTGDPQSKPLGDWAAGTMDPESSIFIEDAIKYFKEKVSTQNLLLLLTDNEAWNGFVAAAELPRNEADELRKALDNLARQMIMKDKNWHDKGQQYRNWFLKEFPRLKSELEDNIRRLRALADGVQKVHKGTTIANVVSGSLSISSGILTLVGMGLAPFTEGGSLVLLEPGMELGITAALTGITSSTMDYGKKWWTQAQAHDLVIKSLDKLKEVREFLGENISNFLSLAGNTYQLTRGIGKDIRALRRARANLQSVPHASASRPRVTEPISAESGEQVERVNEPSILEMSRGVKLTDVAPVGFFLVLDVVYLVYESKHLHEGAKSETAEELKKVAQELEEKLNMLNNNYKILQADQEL
Procedure, shortened: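 Percent viability comes from AlamarBlue (resazurin→resorufin) fluorescence interpolated on a standard curve of known parasite numbers, with no-APOL1 wells as 100%. Parasites (Lister 427 bloodstream form, 120,000/well, serum-free assay medium) meet 0.05 μg/mL APOL1 (~EC90). Compounds span a 10-point series, 0.1% DMSO final.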

APOL1 = molecular target: T2, APOL1 (Homo sapiens, UniProt O14791); assay: Multi-Tox Assay (MultiTox-Fluor Multiplex Cytotoxicity Assay in tet-inducible APOL1 T-REx-HEK293 cells; Table 46 does not say which APOL1 variant G0/G1/G2); format: cell-based; conditions: APOL1 variant not given; for IC50: IP50 = IC50 for cell proliferation
T2 sequence (O14791 1-398 S342G/I384M): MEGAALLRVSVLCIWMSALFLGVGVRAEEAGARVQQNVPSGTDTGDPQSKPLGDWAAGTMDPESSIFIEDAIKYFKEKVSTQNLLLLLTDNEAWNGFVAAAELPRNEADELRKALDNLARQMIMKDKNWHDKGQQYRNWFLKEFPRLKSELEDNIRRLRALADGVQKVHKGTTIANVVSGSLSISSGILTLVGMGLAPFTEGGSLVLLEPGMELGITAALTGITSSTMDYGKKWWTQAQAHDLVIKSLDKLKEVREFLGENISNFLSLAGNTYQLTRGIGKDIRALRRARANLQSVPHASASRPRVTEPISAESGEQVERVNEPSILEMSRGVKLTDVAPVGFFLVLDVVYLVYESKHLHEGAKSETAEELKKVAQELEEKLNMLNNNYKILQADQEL

Row | SMILES | IC50 (APOL1 G1) | Emax (APOL1 G1) | Multi-Tox Assay Max Activity (%) (APOL1) | IC50 (APOL1)
1 | CCC(O)Cn1cc([C@@H]2C[C@]3(C[C@H](C)N2)OCCc2cc(Cl)sc23)nn1 (mixture of isomers) [Compound 111] | 50 to 500 nM | 98.5% | 99.3% | < 50 nM
2 | C[C@H]1C[C@@]2(C[C@@H](c3ccnc(O)c3)N1)OCCc1cc(Cl)sc12 (racemic) [Compound 112] | 50 to 500 nM | 112% | 100.0% | < 50 nM
3 | CC(=O)Nc1cccc([C@@H]2C[C@]3(C[C@H](C)N2)OCCc2cc(Cl)sc23)c1 (racemic) [Compound 113] | 50 to 500 nM | 97% | 100.0% | < 50 nM
4 | C[C@H]1C[C@@]2(C[C@@H](c3cccc(NS(C)(=O)=O)c3)N1)OCCc1cc(Cl)sc12 (racemic) [Compound 115] | 50 to 500 nM | 100% | 99.3% | < 50 nM
5 | Cc1nccc([C@@H]2C[C@]3(C[C@H](C)N2)OCCc2cc(Cl)sc23)n1 (racemic) [Compound 116] | 50 to 500 nM | 101% | – | < 50 nM
6 | C[C@H]1C[C@@]2(C[C@@H](c3cnn4ccccc34)N1)OCCc1cc(Cl)sc12 (racemic) [Compound 117] | < 50 nM | 101% | 99.0% | < 50 nM
7 | C[C@H]1C[C@@]2(C[C@@H](c3ccn(C)n3)N1)OCCc1cc(Cl)sc12 (racemic) [Compound 118] | 50 to 500 nM | 98% | 99.3% | < 50 nM
8 | C[C@H]1C[C@@]2(C[C@@H](c3cc(C4CC4)n[nH]3)N1)OCCc1cc(Cl)sc12 (racemic) [Compound 120] | 50 to 500 nM | 91.5% | 99.0% | < 50 nM
9 | C[C@H]1C[C@@]2(C[C@@H](c3ccc[nH]c3=O)N1)OCCc1cc(Cl)sc12 (racemic) [Compound 121] | 50 to 500 nM | 97.5% | 99.0% | < 50 nM
10 | C[C@H]1C[C@@]2(C[C@@H](c3ccc(C(F)(F)F)nc3)N1)OCCc1cc(Cl)sc12 (racemic) [Compound 123] | < 50 nM | 104% | 100.0% | < 50 nM
11 | C[C@H]1C[C@@]2(C[C@@H](c3cn(C)c(=O)n(C)c3=O)N1)OCCc1cc(Cl)sc12 (racemic) [Compound 124] | 50 to 500 nM | 104% | 99.3% | 50 to 500 nM
12 | Cc1cc(O)ncc1[C@@H]1C[C@]2(C[C@H](C)N1)OCCc1cc(Cl)sc12 (racemic) [Compound 125] | 50 to 500 nM | 103% | 99.7% | < 50 nM
13 | Cc1cccc([C@@H]2C[C@]3(C[C@H](C)N2)OCCc2cc(Cl)sc23)n1 (racemic) [Compound 126] | 50 to 500 nM | 115% | 99.4% | 50 to 500 nM
14 | C[C@H]1C[C@@]2(C[C@@H](c3ccnc(N(C)C)n3)N1)OCCc1cc(Cl)sc12 (racemic) [Compound 127] | 50 to 500 nM | 107% | 99.3% | 50 to 500 nM
15 | CCc1nc([C@@H]2C[C@]3(C[C@H](C)N2)OCCc2cc(Cl)sc23)c[nH]1 (racemic) [Compound 128] | 50 to 500 nM | 107% | 99.3% | 50 to 500 nM
16 | C[C@H]1C[C@@]2(C[C@@H](c3cnc(N4CCN(C)CC4)nc3)N1)OCCc1cc(Cl)sc12 (racemic) [Compound 129] | < 50 nM | 88% | 100.0% | 50 to 500 nM
17 | C[C@H]1C[C@@]2(C[C@@H](c3c[nH]c(C4CC4)n3)N1)OCCc1cc(Cl)sc12 (racemic) [Compound 130] | 50 to 500 nM | 102% | 99.0% | 50 to 500 nM
18 | C[C@H]1C[C@@]2(C[C@@H](c3cc4n(n3)CCCO4)N1)OCCc1cc(Cl)sc12 (racemic) [Compound 131] | 50 to 500 nM | 111% | 99.3% | 50 to 500 nM
19 | Cc1nocc1[C@@H]1C[C@]2(C[C@H](C)N1)OCCc1cc(Cl)sc12 (racemic) [Compound 132] | 50 to 500 nM | 91.5% | 99.3% | 50 to 500 nM

Row | SMILES | IC50 (APOL1 G1) | Emax (APOL1 G1) | Multi-Tox Assay Max Activity (%) (APOL1) | IC50 (APOL1)
20 | C[C@H]1C[C@@]2(C[C@@H](c3cn(CC(N)=O)nn3)N1)OCCc1cc(Cl)sc12 (racemic) [Compound 133] | 50 to 500 nM | 111% | 99.7% | 50 to 500 nM
21 | Cc1cnc([C@@H]2C[C@]3(C[C@H](C)N2)OCCc2cc(Cl)sc23)o1 (racemic) [Compound 134] | 50 to 500 nM | 96.7% | 99.2% | 50 to 500 nM
22 | Cc1c([C@@H]2C[C@]3(C[C@H](C)N2)OCCc2cc(Cl)sc23)cnn1C (racemic) [Compound 136] | 50 to 500 nM | 100% | – | 50 to 500 nM
23 | COc1cc(O)cc([C@@H]2C[C@]3(C[C@H](C)N2)OCCc2cc(Cl)sc23)c1 (racemic) [Compound 137] | 50 to 500 nM | 84.5% | 98.7% | 50 to 500 nM
24 | Cc1cc([C@@H]2C[C@]3(C[C@H](C)N2)OCCc2cc(Cl)sc23)nc(N(C)C)n1 (racemic) [Compound 138] | 50 to 500 nM | 104% | 98.0% | 50 to 500 nM
25 | Cc1ccnc([C@@H]2C[C@]3(C[C@H](C)N2)OCCc2cc(Cl)sc23)c1 (racemic) [Compound 139] | > 500 nM | 98.3% | 98.0% | 50 to 500 nM
26 | C[C@H]1C[C@@]2(C[C@@H](c3cnc(C4CCOCC4)o3)N1)OCCc1cc(Cl)sc12 (racemic) [Compound 140] | 50 to 500 nM | 102% | 99.7% | 50 to 500 nM
27 | C[C@H]1C[C@@]2(C[C@@H](c3cccc4[nH]c(=O)oc34)N1)OCCc1cc(Cl)sc12 (racemic) [Compound 141] | 50 to 500 nM | 90% | – | 50 to 500 nM
28 | Cc1nn(C)cc1[C@@H]1C[C@]2(C[C@H](C)N1)OCCc1cc(Cl)sc12 (racemic) [Compound 142] | 50 to 500 nM | 83.7% | 99.0% | 50 to 500 nM
29 | Cc1nc([C@@H]2C[C@]3(C[C@H](C)N2)OCCc2cc(Cl)sc23)oc1C (racemic) [Compound 144] | 50 to 500 nM | 102% | 98.0% | 50 to 500 nM
30 | COc1ccnc([C@@H]2C[C@]3(C[C@H](C)N2)OCCc2cc(Cl)sc23)n1 (racemic) [Compound 145] | 50 to 500 nM | 88% | – | 50 to 500 nM
31 | C[C@H]1C[C@@]2(C[C@@H](c3cccc(S(C)(=O)=O)c3)N1)OCCc1cc(Cl)sc12 (racemic) [Compound 146] | 50 to 500 nM | 88% | – | 50 to 500 nM
32 | C[C@H]1C[C@@]2(C[C@@H](c3cccc(S(N)(=O)=O)c3)N1)OCCc1cc(Cl)sc12 (racemic) [Compound 147] | 50 to 500 nM | 93.5% | – | 50 to 500 nM
33 | C[C@H]1C[C@@]2(C[C@@H](c3cccc(-c4cn[nH]c4)c3)N1)OCCc1cc(Cl)sc12 (racemic) [Compound 148] | 50 to 500 nM | 92.5% | 97.0% | 50 to 500 nM
34 | C[C@H]1C[C@@]2(C[C@@H](c3cnc4n3CCOC4)N1)OCCc1cc(Cl)sc12 (racemic) [Compound 149] | > 500 nM | 95% | – | 50 to 500 nM
35 | Cc1nc([C@@H]2C[C@]3(C[C@H](C)N2)OCCc2cc(Cl)sc23)[nH]c1C (racemic) [Compound 150] | > 500 nM | 87% | 96.3% | 50 to 500 nM
36 | C[C@H]1C[C@@]2(C[C@@H](c3cccc(=O)[nH]3)N1)OCCc1cc(Cl)sc12 (racemic) [Compound 151] | > 500 nM | 85.7% | – | 50 to 500 nM
37 | C[C@H]1C[C@@]2(C[C@@H](c3ccnn3C)N1)OCCc1cc(Cl)sc12 (racemic) [Compound 152] | > 500 nM | 92.7% | 98.0% | 50 to 500 nM

— patent US12421249B2, “Inhibitors of APOL1 and methods of using same” (Vertex Pharmaceuticals Incorporated, priority 2020, dated 2025)
